From PMC6920566 (Journal of molecular biology, 2019)

Test system: MDA-MB-231 cells
Test: Fluorescence microscopy of A488-pHLIP cellular interaction
Assay type: cell-based, human

H2N-GCEQNPIYWARYADWLF-TTPLLLLDLALLVDADEGTG-CONH2 [A488-pHLIP]
A488 fluorescence of cells (microscopy) (pH 5.0, absence of divalent cations): large increase in A488 fluorescence intensity
A488 fluorescence of cells (microscopy) (pH 7.4, 1.8 mM Ca2+): significant increase in A488 fluorescence intensity
A488 fluorescence of cells (microscopy) (pH 7.4, absence of divalent cations, washed before imaging): No significant fluorescence
